# Measured values taken from patent publication US20230390397A1, “SYSTEM, METHOD AND PROCESS FOR SELF-STERILIZATION OF IODINE-[…]” (HDR LLC, priority 2022, published 2023).
# “And” between values parts separate entries of the source, which are not always exact repeats. Equal values may be shown once. Read-outs that look alike come from different tables or passages of the source.
# Legend:
# [1] = Evaporation of I2 from I2 and I- mixed solutions in an open and well-ventilated space; type: physicochemical; conditions: initial I2 concentration 0.99 mm, open system
# From the text: The effects of temperature, concentration of I2, and presence of I— on the evaporation of I2 in I2 and I— mixed solutions were investigated in an open and well-ventilated space. From the experiments, it was confirmed that the evaporation rate of I2 increased exponentially as the solution temperature increased, showing a similar trend with temperature dependence of the saturated vapor pressure of I2.
# The phenomenon that I2 evaporation was expedited at higher temperature can be explained by temperature dependency of the evaporation enthalpy and saturated vapor pressure. For an open system, the vapor pressure of elemental iodine increases about 14 torr, or 0.27 psi.
# [2] = cited from earlier work
smiles,measurement,setting,value
"II [Elemental iodine, Elemental iodine (I2)]",lapsed time required to reduce less than 10% of the initial concentration,[1]; 50° C.,~30 min
same,lapsed time required to reduce less than 10% of the initial concentration,[1]; 80° C.,~7 min
same,free iodine which is soluble in water,[2]; 20° C.,290 ppm
same,solubility in water,[2]; 20° C.,0.29 g/L
same,solubility in water,[2]; 25° C.,0.33 g/l and 1.2 mM
same,solubility in water,[2]; 50° C.,0.78 g/L
same,free iodine which is soluble in water,[2]; 70° C.,"1,100 ppm"
same,free iodine which is soluble in water,[2]; 80° C.,"1,250 ppm"
same,solubility in water,[2]; 80° C.,1.25 g/L
